Data from patent US20240101592A1, “COMPOSITIONS AND METHODS FOR TREATING CNS DISORDERS” (Sage Therapeutics, Inc., priority 2020, published 2024).
pIC50: −log10 of the molar value.

The compounds below were run against GABAA receptor ([35S]-TBPS binding, rat brain cortical membranes) (assay: Steroid inhibition of [35S]-TBPS binding). Settings: 3 nM [35S]-TBPS, in the presence of 5 mM GABA, 90 min at room temp.
Procedure: Steroid Inhibition of TBPS Binding
[^35S]-t-Butylbicyclophosphorothionate (TBPS) binding assays using rat brain cortical membranes in the presence of 5 mM GABA has been described (Gee et al, J. Pharmacol. Exp. Ther. 1987, 241, 346-353; Hawkinson et al, Mol. Pharmacol. 1994, 46, 977-985; Lewin, A. H et al., Mol. Pharmacol. 1989, 35, 189-194).
Briefly, cortices are rapidly removed following decapitation of carbon dioxide-anesthetized Sprague-Dawley rats (200-250 g). The cortices are homogenized in 10 volumes of ice-cold 0.32 M sucrose using a glass/teflon homogenizer and centrifuged at 1500×g for 10 min at 4° C. The resultant supernatants are centrifuged at 10,000×g for 20 min at 4° C. to obtain the P2 pellets. The P2 pellets are resuspended in 200 mM NaCl/50 mM Na—K phosphate pH 7.4 buffer and centrifuged at 10,000×g for 10 min at 4° C. This washing procedure is repeated twice and the pellets are resuspended in 10 volumes of buffer. Aliquots ([…]) of the membrane suspensions are incubated with 3 nM [^35S]-TBPS and […] aliquots of test drug dissolved in dimethyl sulfoxide (DMSO) (final 0.5%) in the presence of 5 mM GABA. The incubation is brought to a final volume of 1.0 mL with buffer. Nonspecific binding is determined in the presence of […] and ranged from 15 to 25%. Following a 90 min incubation at room temp, the assays are terminated by filtration through glass fiber filters (Schleicher and Schuell No. 32) using a cell harvester (Brandel) and rinsed three times with ice-cold buffer. Filter bound radioactivity is measured by liquid scintillation spectrometry. Non-linear curve fitting of the overall data for each drug averaged for each concentration is done using Prism (GraphPad). […] The concentration of test compound producing 50% inhibition (IC50) of specific binding and the maximal extent of inhibition (Imax) are determined for the individual experiments with the same model used for the overall data and then the means±SEM.s of the individual experiments are calculated.
Various compounds are or can be screened to determine their potential as modulators of [^35S]-TBPS binding in vitro. These assays are or can be performed in accordance with the above.

First: CC(=O)[C@H]1CC[C@@]23C[C@@]12CC[C@H]1[C@H]3CC[C@H]2C[C@](C)(O)CC[C@@]21C [Compound No. 22, 1-((3R,5S,8R,9S,10S,13S,14S,17S)-3-hydroxy-3,10-dimethyltetradecahydro-1H-13,14-methanocyclopenta[a]phenanthren-17-yl)ethanone]
Second: C[C@@]1(O)CC[C@@]2(C)[C@@H](CC[C@@H]3[C@@H]2CC[C@@]24C[C@@]32CC[C@@H]4C(=O)Cn2cc(C#N)cn2)C1 [Compound No. 23, 1-(2-((3R,5S,8R,9S,10S,13S,14S,17S)-3-hydroxy-3,10-dimethyltetradecahydro-1H-13,14-methanocyclopenta[a]phenanthren-17-yl)-2-oxoethyl)-1H-pyrazole-4-carbonitrile]
The pIC50 of the first is lower: 6.00 to 7.00 for the first, greater than 7.00 for the second.

CC(=O)[C@H]1[C@H]2C[C@H]2[C@H]2[C@@H]3CC[C@@H]4C[C@](C)(O)CC[C@@H]4[C@H]3CC[C@@]21C [Compound No. 9, 1-((2R,4aS,4bR,6aS,7S,7aS,8aR,8bR,8cR,10aR)-2-hydroxy-2,6a-dimethyloctadecahydrocyclopropa[4,5]cyclopenta[1,2-a]phenanthren-7-yl)ethanone] and COC[C@@]1(O)CC[C@H]2[C@@H](CC[C@@H]3[C@@H]2CC[C@@]2(C)[C@H]3[C@@H]3C[C@@H]3[C@@H]2C(C)=O)C1 [Compound No. 16, 1-((2R,4aS,4bR,6aS,7S,7aS,8aR,8bR,8cR,10aS)-2-hydroxy-2-(methoxymethyl)-6a-methyloctadecahydrocyclopropa[4,5]cyclopenta[1,2-a]phenanthren-7-yl)ethanone] cannot be ordered by pIC50: greater than 7.00 for the first, greater than 7.00 for the second.

C[C@H](Cn1cc(C#N)cn1)[C@H]1[C@@H]2C[C@@H]2C[C@H]2[C@@H]3CC[C@@H]4C[C@](C)(O)CC[C@@H]4[C@H]3CC[C@]12C [Compound No. 5, 1-((S)-2-((2R,4aS,4bR,6aS,7R,7aR,8aR,9aS,9bR,11aR)-2-hydroxy-2,6a-dimethyloctadecahydro-1H-cyclopropa[b]chrysen-7-yl)propyl)-1H-pyrazole-4-carbonitrile] and C[C@@H](Cn1cc(C#N)cn1)[C@H]1[C@@H]2C[C@@H]2C[C@H]2[C@@H]3CC[C@@H]4C[C@](C)(O)CC[C@@H]4[C@H]3CC[C@]12C [Compound No. 4, 1-((R)-2-((2R,4aS,4bR,6aS,7R,7aR,8aR,9aS,9bR,11aR)-2-hydroxy-2,6a-dimethyloctadecahydro-1H-cyclopropa[b]chrysen-7-yl)propyl)-1H-pyrazole-4-carbonitrile] cannot be ordered by pIC50: greater than 7.00 for the first, greater than 7.00 for the second.

COC[C@@]1(O)CC[C@H]2[C@@H](CC[C@@H]3[C@@H]2CC[C@@]2(C)[C@H]3[C@@H]3C[C@@H]3[C@@H]2[C@H](C)Cn2nnc(C)n2)C1 [Compound No. 17, (2R,4aS,4bR,6aS,7R,7aS,8aR,8bR,8cR,10aS)-2-(methoxymethyl)-6a-methyl-7-((S)-1-(5-methyl-2H-tetrazol-2-yl)propan-2-yl)octadecahydrocyclopropa[4,5]cyclopenta[1,2-a]phenanthren-2-ol] and COC[C@@]1(O)CC[C@H]2[C@@H](CC[C@@H]3[C@@H]2CC[C@@]2(C)[C@H]3[C@@H]3C[C@@H]3[C@@H]2[C@@H](C)Cn2nnc(C)n2)C1 [Compound No. 18, (2R,4aS,4bR,6aS,7R,7aS,8aR,8bR,8cR,10aS)-2-(methoxymethyl)-6a-methyl-7-((R)-1-(5-methyl-2H-tetrazol-2-yl)propan-2-yl)octadecahydrocyclopropa[4,5]cyclopenta[1,2-a]phenanthren-2-ol] fall in the same range of pIC50: 6.00 to 7.00 for the first, 6.00 to 7.00 for the second.

C[C@@]1(O)CC[C@H]2[C@H](CC[C@@H]3[C@@H]2CC[C@@]2(C)[C@H]3C[C@@H]3C[C@@H]3[C@@H]2C(=O)Cn2cc(C#N)cn2)C1 [Compound No. 6, 1-(2-((2R,4aS,4bR,6aS,7S,7aS,8aS,9aS,9bR,11aR)-2-hydroxy-2,6a-dimethyloctadecahydro-1H-cyclopropa[b]chrysen-7-yl)-2-oxoethyl)-1H-pyrazole-4-carbonitrile] and C[C@@]1(O)CC[C@H]2[C@H](CC[C@@H]3[C@@H]2CC[C@@]2(C)[C@H]3C[C@H]3C[C@H]3[C@@H]2C(=O)Cn2cc(C#N)cn2)C1 [Compound No. 1, 1-(2-((2R,4aS,4bR,6aS,7S,7aR,8aR,9aS,9bR,11aR)-2-hydroxy-2,6α-dimethyloctadecahydro-1H-cyclopropa[b]chrysen-7-yl)-2-oxoethyl)-1H-pyrazole-4-carbonitrile] cannot be ordered by pIC50: greater than 7.00 for the first, greater than 7.00 for the second.

CCC[C@@]1(O)CC[C@H]2C(CC[C@@H]3[C@@H]2CC[C@@]2(C)[C@H]3[C@@H]3C[C@@H]3[C@@H]2C(=O)Nc2ccc(C#N)cn2)C1 (stereo in doubt) [Compound No. 15, (2R,4aS,4bR,6aS,7S,7aS,8aR,8bR,8cR,10aR)-N-(5-cyanopyridin-2-yl)-2-hydroxy-6a-methyl-2-propyloctadecahydrocyclopropa[4,5]cyclopenta[1,2-a]phenanthrene-7-carboxamide] and CC(Cn1cc(C#N)cn1)[C@H]1[C@H]2C[C@H]2[C@H]2[C@@H]3CC[C@@H]4C[C@](C)(O)CC[C@@H]4[C@H]3CC[C@@]21C (single isomer, unassigned) [Compound No. 10] cannot be ordered by pIC50: greater than 7.00 for the first, greater than 7.00 for the second.

Cc1nnn(C[C@@H]2C[C@H]2[C@H]2CC[C@H]3[C@@H]4CC[C@@H]5C[C@](C)(O)CC[C@@H]5[C@H]4CC[C@]23C)n1 [Compound No. 28, (3R,5R,8R,9R,10S,13S,14S,17R)-3,13-dimethyl-17-((1S,2R)-2-((5-methyl-2H-tetrazol-2-yl)methyl)cyclopropyl)hexadecahydro-1H-cyclopenta[a]phenanthren-3-ol] and C[C@@]1(O)CC[C@H]2[C@H](CC[C@@H]3[C@@H]2CC[C@]2(C)[C@@H]([C@H]4C[C@@H]4Cn4cc(C#N)cn4)CC[C@@H]32)C1 [Compound No. 24, 1-(((1S,2R)-2-((3R,5R,8R,9R,10S,13S,14S,17R)-3-hydroxy-3,13-dimethylhexadecahydro-1H-cyclopenta[a]phenanthren-17-yl)cyclopropyl)methyl)-1H-pyrazole-4-carbonitrile] cannot be ordered by pIC50: greater than 7.00 for the first, greater than 7.00 for the second.

C[C@@]1(O)CC[C@H]2[C@H](CC[C@@H]3[C@@H]2CC[C@@]2(C)[C@H]3[C@@H]3C[C@@H]3[C@@H]2[C@@](C)(O)Cn2cc(C#N)cn2)C1 (single isomer, unassigned) [Compound No. 13] and C[C@@]1(O)CC[C@H]2[C@H](CC[C@@H]3[C@@H]2CC[C@@]2(C)[C@H]3C[C@H]3C[C@H]3[C@@H]2[C@](C)(O)Cn2cc(C#N)cn2)C1 [Compound No. 2, 1-((S)-2-hydroxy-2-((2R,4aS,4bR,6aS,7S,7aR,8aR,9aS,9bR,11aR)-2-hydroxy-2,6a-dimethyloctadecahydro-1H-cyclopropa[b]chrysen-7-yl)propyl)-1H-pyrazole-4-carbonitrile] cannot be ordered by pIC50: greater than 7.00 for the first, greater than 7.00 for the second.

First: CCC[C@@]1(O)CC[C@@]2(C)[C@@H](CC[C@H]3[C@@H]4[C@@H]5C[C@@H]5[C@H]([C@@](C)(O)Cn5cc(C#N)cn5)[C@@]4(C)CC[C@@H]32)C1 [Compound No. 14, 1-((R)-2-hydroxy-2-((2R,4aS,4bS,6aS,7S,7aS,8aR,8bS,8cR,10aS)-2-hydroxy-4a,6a-dimethyl-2-propyloctadecahydrocyclopropa[4,5]cyclopenta[1,2-a]phenanthren-7-yl)propyl)-1H-pyrazole-4-carbonitrile]
Second: CC(Cn1cc(C#N)cn1)[C@H]1[C@H]2C[C@H]2[C@H]2[C@@H]3CC[C@@H]4C[C@](C)(O)CC[C@@H]4[C@H]3CC[C@@]21C (single isomer, unassigned) [Compound No. 11]
The pIC50 of the first is lower: less than 6.00 for the first, greater than 7.00 for the second.

First: C[C@@]1(O)CC[C@H]2[C@H](CC[C@@H]3[C@@H]2CC[C@]2(C)[C@H](C(=O)Cn4cc(C#N)cn4)[C@H]4C[C@H]4C[C@@H]32)C1 [Compound No. 7, 1-(2-((2R,4aS,4bR,6aS,7R,7aS,8aS,9aS,9bR,11aR)-2-hydroxy-2,6a-dimethyloctadecahydro-1H-cyclopropa[b]chrysen-7-yl)-2-oxoethyl)-1H-pyrazole-4-carbonitrile]
Second: C[C@@]1(O)CC[C@H]2[C@H](CC[C@@H]3[C@@H]2CC[C@]2(C)[C@@H]([C@@H]4C[C@H]4Cn4cc(C#N)cn4)CC[C@@H]32)C1 [Compound No. 25, 1-(((1R,2S)-2-((3R,5R,8R,9R,10S,13S,14S,17R)-3-hydroxy-3,13-dimethylhexadecahydro-1H-cyclopenta[a]phenanthren-17-yl)cyclopropyl)methyl)-1H-pyrazole-4-carbonitrile]
The pIC50 of the first is lower: less than 6.00 for the first, greater than 7.00 for the second.
